# Assay: Pharmacokinetics of noribogaine in healthy volunteers (plasma, LCMSMS)
# Settings: for AUC0-216 / AUC0-∞ / Cmax / Tmax / t1/2: healthy male volunteers, fasted, n = 6, mean (SD)
# [1] = 30 mg and 60 mg noribogaine dose groups
compound,measurement,setting,value
"CC[C@H]1C[C@@H]2C[C@H]3c4[nH]c5ccc(OC6OC(C(=O)O)C(O)C(O)C6O)cc5c4CCN(C2)[C@@H]13 (some centres unmarked) [Noribogaine glucuronide, noribogaine glucuronide]",mean half-life in plasma,[1],21 to 23 h
same,time by which detected in plasma of all subjects,[1],≤ 0.75 h
same,time of peak concentrations after noribogaine dosing,[1],3 to 4 h
same,proportion of Cmax and AUC relative to noribogaine,"both dose groups (30 mg, 60 mg)",3-4%
same,AUC0-216,single oral 30 mg noribogaine,25.7 (9.1) ng · hr/ml
same,AUC0-∞,single oral 30 mg noribogaine,25.8 (9.3) ng · hr/ml
same,Cmax,single oral 30 mg noribogaine,1.8 (0.6) ng/ml
same,Tmax,single oral 30 mg noribogaine,3.0 (0.6) hr
same,t1/2,single oral 30 mg noribogaine,20.6 (4.9) hr
same,AUC0-216,single oral 60 mg noribogaine,65.0 (21.5) ng · hr/ml
same,AUC0-∞,single oral 60 mg noribogaine,67.1 (21.9) ng · hr/ml
same,Cmax,single oral 60 mg noribogaine,4.1 (1.2) ng/ml
same,Tmax,single oral 60 mg noribogaine,3.8 (1.2) hr
same,t1/2,single oral 60 mg noribogaine,23.1 (3.0) hr
